Results taken from patent US8637537B2, “Serine/threonine kinase inhibitors” (Genentech, Inc., priority 2011, dated 2014).
Counter-ions that a name gives are not always drawn. Like-named read-outs stand apart in the source and are kept apart here.

Biological target: T1, human recombinant GST-PAK1-KD protein (Homo sapiens, UniProt Q13153)
T1 construct: residues #249-545 of human PAK1, UniProtKP/Swiss Q13153; His6 (N); made in house; host or cells: Sf9 insect cells, pAcGP67 baculovirus expression vector
T1 sequence (Q13153 249-545): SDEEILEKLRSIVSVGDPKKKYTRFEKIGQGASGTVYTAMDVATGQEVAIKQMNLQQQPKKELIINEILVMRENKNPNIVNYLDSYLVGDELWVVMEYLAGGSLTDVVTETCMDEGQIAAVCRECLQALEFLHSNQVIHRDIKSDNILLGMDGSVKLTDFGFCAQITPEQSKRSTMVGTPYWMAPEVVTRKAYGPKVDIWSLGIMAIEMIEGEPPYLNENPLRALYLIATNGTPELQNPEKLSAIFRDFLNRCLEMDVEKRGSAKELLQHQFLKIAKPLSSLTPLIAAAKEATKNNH
Assay: GST-PAK1-KD (kinase domain) biochemical assay, microfluidic mobility shift
Description: Activity of human recombinant GST-PAK1-KD protein was assessed in vitro assay by observing the phosphorylation of a fluorogenic peptide substrate.
The peptide substrate is a consensus sequence based on various PAK1 substrates reported in the scientific literature. […] Incubations were carried out at 22° C. in MatriCal MP101 384-well Metriplates™. […] Following the 30-minute incubation, the assay mixtures were quenched by the addition of 3 μL of 250 mM EDTA, and the substrate and phosphorylated product were separated by capillary electrophoresis and detected using LabChip® Caliper 3000 (Caliper Life Sciences).

[1] = Table I, PAK1 Ki class, read-out: Ki

Compound	Ki [1]	Ki
F[C@H]1C[C@H]1c1cc(Nc2ccnc(NCc3ccc4[nH]cnc4c3Cl)n2)n[nH]1 [I-76, N^2-((4-chloro-1H-benzo[d]imidazol-5-yl)methyl)-N^4-(5-((1S,2S)-2-fluorocyclopropyl)-1H-pyrazol-3-yl)pyrimidine-2,4-diamine]	< 50 nM	–
F[C@@H]1C[C@@H]1c1cc(Nc2ccnc(NCc3ccc4[nH]cnc4c3Cl)n2)n[nH]1 [I-77, N^2-((4-chloro-1H-benzo[d]imidazol-5-yl)methyl)-N^4-(5-((1R,2R)-2-fluorocyclopropyl)-1H-pyrazol-3-yl)pyrimidine-2,4-diamine]	< 50 nM	–
F[C@@H]1C[C@H]1c1cc(Nc2ccnc(NCc3ccc4[nH]cnc4c3Cl)n2)n[nH]1 [I-78, N^2-((4-chloro-1H-benzo[d]imidazol-5-yl)methyl)-N^4-(5-((1S,2R)-2-fluorocyclopropyl)-1H-pyrazol-3-yl)pyrimidine-2,4-diamine]	< 50 nM	–
F[C@H]1C[C@@H]1c1cc(Nc2ccnc(NCc3ccc4[nH]cnc4c3Cl)n2)n[nH]1 [I-79, N^2-((4-chloro-1H-benzo[d]imidazol-5-yl)methyl)-N^4-(5-((1R,2S)-2-fluorocyclopropyl)-1H-pyrazol-3-yl)pyrimidine-2,4-diamine]	< 50 nM	–
FC1(F)CC1c1cc(Nc2ccnc(NCc3cccc4[nH]ccc34)n2)n[nH]1 (centres unmarked) [I-82, N2—((1H-indol-4-yl)methyl)-N4-(5-(2,2-difluorocyclopropyl)-1H-pyrazol-3-yl)pyrimidine-2,4-diamine]	< 50 nM	–
C[C@H](Nc1nc(Nc2cc(C3CC3)[nH]n2)cc(C(C)(C)O)n1)c1ccc2[nH]ccc2c1 [I-83, (S)-2-(2-(1-(1H-indol-5-yl)ethylamino)-6-(5-cyclopropyl-1H-pyrazol-3-ylamino)pyrimidin-4-yl)propan-2-ol]	< 50 nM	–
CC(C)(O)c1cc(Nc2cc(C3CC3)[nH]n2)nc(NCc2ccc3[nH]cnc3c2Cl)n1 [I-84, 2-(2-((4-chloro-1H-benzo[d]imidazol-5-yl)methylamino)-6-(5-cyclopropyl-1H-pyrazol-3-ylamino)pyrimidin-4-yl)propan-2-ol]	< 50 nM	–
CC(C)(O)c1cc(Nc2cc(C3CC3)[nH]n2)nc(NCc2cccc3[nH]ccc23)n1 [I-85, 2-(2-((1H-indol-4-yl)methylamino)-6-(5-cyclopropyl-1H-pyrazol-3-ylamino)pyrimidin-4-yl)propan-2-ol]	50 to 250 nM	–
CN(Cc1ccc2[nH]cnc2c1Cl)c1ncc(F)c(Nc2cc(C3CC3)[nH]n2)n1 [I-86, N^2-((4-chloro-1H-benzo[d]imidazol-5-yl)methyl)-N^4-(5-cyclopropyl-1H-pyrazol-3-yl)-5-fluoro-N^2-methylpyrimidine-2,4-diamine]	< 50 nM	–
CN(Cc1ccc2[nH]cnc2c1Cl)c1nccc(Nc2cc(C3CC3)[nH]n2)n1 [I-87, N^2-((4-chloro-1H-benzo[d]imidazol-5-yl)methyl)-N^4-(5-cyclopropyl-1H-pyrazol-3-yl)-N^2-methylpyrimidine-2,4-diamine]	–	< 50 nM
Fc1cc(CNc2nccc(Nc3cc(C4CCC4)[nH]n3)n2)c2cc[nH]c2c1 [I-88, N^4-(5-Cyclobutyl-1H-pyrazol-3-yl)-N^2-((6-fluoro-1H-indol-4-yl)methyl)pyrimidine-2,4-diamine Formate]	< 50 nM	–
Cc1cc(Nc2cc(C3CC3)[nH]n2)nc(NCc2cc(F)cc3[nH]ccc23)n1 [I-89, N^4-(5-Cyclopropyl-1H-pyrazol-3-yl)-N^2-((6-fluoro-1H-indol-4-yl)methyl)-6-methylpyrimidine-2,4-diamine Formate]	250 to 1000 nM	–
Fc1cc(CNc2ncc(F)c(Nc3cc(C4CCC4)[nH]n3)n2)c2cc[nH]c2c1 [I-90, N^4-(5-Cyclobutyl-1H-pyrazol-3-yl)-5-fluoro-N^2-((6-fluoro-1H-indol-4-yl)methyl)pyrimidine-2,4-diamine formate]	250 to 1000 nM	–
Fc1cc(CNc2ncc(F)c(Nc3cc(C4CC4)[nH]n3)n2)c2cc[nH]c2c1 [I-91, N^4-(5-Cyclopropyl-1H-pyrazol-3-yl)-5-fluoro-N^2-((6-fluoro-1H-indol-4-yl)methyl)pyrimidine-2,4-diamine diformate]	250 to 1000 nM	–
Cc1c[nH]c2cccc(CNc3nccc(Nc4cc(C5CC5)[nH]n4)n3)c12 [I-92, N^4-(5-Cyclopropyl-1H-pyrazol-3-yl)-N^2-((3-methyl-1H-indol-4-yl)methyl)pyrimidine-2,4-diamine]	< 50 nM	–
Clc1cc2[nH]ccc2cc1CNc1nccc(Nc2cc(C3CC3)[nH]n2)n1 [I-93, N^2-((6-Chloro-1H-indol-5-yl)methyl)-N^4 (5-cyclopropyl-1H-pyrazol-3-yl)pyrimidine-2,4-diamine]	50 to 250 nM	–

Second part, the compound after the results:

Ki [1]	Ki	Compound
50 to 250 nM	–	Clc1cc2[nH]cnc2cc1CNc1nccc(Nc2cc(C3CC3)[nH]n2)n1 [I-94, N^2-((6-chloro-1H-benzo[d]imidazol-5-yl)methyl)-N^4-(5-cyclopropyl-1H-pyrazol-3-yl)-pyrimidine-2,4-diamine]
< 50 nM	–	Cc1c(CN(C)c2nccc(Nc3cc(C4CC4)[nH]n3)n2)ccc2[nH]cnc12 [I-95, N^4-(5-Cyclopropyl-1H-pyrazol-3-yl)-N^2-methyl-N^2-((4-methyl-1H-benzo[d]imidazol-5-yl)methyl)pyrimidine-2,4-diamine]
50 to 250 nM	–	Fc1cc(CNc2nccc(Nc3cc(C4CC4)[nH]n3)n2)cc2nc[nH]c12 [I-96, N^4-(5-cyclopropyl-1H-pyrazol-3-yl)-N^2-((7-fluoro-1H-benzo[d]imidazol-5-yl)methyl)pyrimidine-2,4-diamine]
< 50 nM	–	Fc1cnc(NCc2cccc3[nH]cnc23)nc1Nc1cc(C2CC2)n[nH]1 [I-97, N^2-((3H-benzo[d]imidazol-4-yl)methyl)-N^4-(3-cyclopropyl-1H-pyrazol-5-yl)-5-fluoropyrimidine-2,4-diamine]
< 50 nM	–	C[C@H](Nc1nccc(Nc2cc(C3CC3)[nH]n2)n1)c1cccc2[nH]ccc12 [I-98, N^4-(5-cyclopropyl-1H-pyrazol-3-yl)-N^2-[(1S)-1-(1H-indol-4-yl)ethyl]pyrimidine-2,4-diamine]
50 to 250 nM	–	C[C@H](Nc1ncc(F)c(Nc2cc(C3CC3)[nH]n2)n1)c1cccc2[nH]ccc12 [I-99, N^4-(5-cyclopropyl-1H-pyrazol-3-yl)-5-fluoro-N^2-[(1S)-1-(1H-indol-4-yl)ethyl]pyrimidine-2,4-diamine]
> 1000 nM	–	C[C@@H](Nc1ncc(F)c(Nc2cc(C3CC3)[nH]n2)n1)c1cccc2[nH]ccc12 [I-100, N^4-(5-cyclopropyl-1H-pyrazol-3-yl)-5-fluoro-N^2-[(1R)-1-(1H-indol-4-yl)ethyl]pyrimidine-2,4-diamine]
50 to 250 nM	–	CC[C@H](Nc1ncc(F)c(Nc2cc(C3CC3)[nH]n2)n1)c1ccc2[nH]cnc2c1 [I-101, N^2-[(1S)-1-(1H-benzimidazol-5-yl)propyl]-N^4-(5-cyclopropyl-1H-pyrazol-3-yl)-5-fluoro-pyrimidine-2,4-diamine]
250 to 1000 nM	–	c1cc(Nc2cc(C3CC3)[nH]n2)nc(NCc2ccc3[nH]ncc3c2)n1 [I-102, N^4-(5-cyclopropyl-1H-pyrazol-3-yl)-N^2-(1H-indazol-5-ylmethyl)pyrimidine-2,4-diamine]
> 1000 nM	–	c1cc(Nc2cc(C3CC3)[nH]n2)nc(NCc2ccc3cn[nH]c3c2)n1 [I-103, N^4-(5-cyclopropyl-1H-pyrazol-3-yl)-N^2-(1H-indazol-6-ylmethyl)pyrimidine-2,4-diamine]
50 to 250 nM	–	FC1(F)CC(c2cc(Nc3ccnc(NCc4cccc5[nH]ccc45)n3)n[nH]2)C1 [I-104, N^2-((1H-indol-4-yl)methyl)-N^4-(5-(3,3-difluorocyclobutyl)-1H-pyrazol-3-yl)pyrimidine-2,4-diamine]
< 50 nM	–	FC1(F)CC(c2cc(Nc3ccnc(NCc4ccc5[nH]cnc5c4Cl)n3)n[nH]2)C1 [I-105, N^2-((4-chloro-1H-benzo[d]imidazol-5-yl)methyl)-N^4-(5-(3,3-difluorocyclobutyl)-1H-pyrazol-3-yl)pyrimidine-2,4-diamine]
< 50 nM	–	Clc1c(CNc2nccc(Nc3cc(C4CCCC4)[nH]n3)n2)ccc2[nH]cnc12 [I-107, N^2-((4-chloro-1H-benzo[d]imidazol-5-yl)methyl)-N^4-(5-cyclopentyl-1H-pyrazol-3-yl)pyrimidine-2,4-diamine]
< 50 nM	–	Clc1c(CNc2nccc(Nc3cc(C4CCC4)[nH]n3)n2)ccc2[nH]cnc12 [I-108, N^2-((4-chloro-1H-benzo[d]imidazol-5-yl)methyl)-N^4-(5-cyclobutyl-1H-pyrazol-3-yl)pyrimidine-2,4-diamine]
250 to 1000 nM	–	C[C@H](Nc1ncc(Cl)c(Nc2cc(C3CC3)[nH]n2)n1)c1ccc2[nH]ccc2c1 [I-110, (S)—N^2-(1-(1H-indol-5-yl)ethyl)-5-chloro-N^4-(5-cyclopropyl-1H-pyrazol-3-yl)pyrimidine-2,4-diamine]
< 50 nM	–	C[C@H](Nc1nccc(Nc2cc(C3CC(F)(F)C3)[nH]n2)n1)c1ccc2[nH]ccc2c1 [I-111, (S)—N^2-(1-(1H-indol-5-yl)ethyl)-N^4-(5-(3,3-difluorocyclobutyl)-1H-pyrazol-3-yl)pyrimidine-2,4-diamine]
250 to 1000 nM	–	Cc1cc(Nc2ccnc(N[C@@H](C)c3ccc4[nH]ccc4c3)n2)n[nH]1 [I-112, (S)—N^2-(1-(1H-indol-5-yl)ethyl)-N^4-(5-methyl-1H-pyrazol-3-yl)pyrimidine-2,4-diamine]
< 50 nM	–	C[C@H](Nc1nccc(Nc2cc(C3CCCC3)[nH]n2)n1)c1ccc2[nH]ccc2c1 [I-113, (S)—N^2-(1-(1H-indol-5-yl)ethyl)-N^4-(5-cyclopentyl-1H-pyrazol-3-yl)pyrimidine-2,4-diamine]
< 50 nM	–	C[C@H](Nc1nccc(Nc2cc(C3CCOC3)[nH]n2)n1)c1ccc2[nH]ccc2c1 (stereo partly drawn) [I-115, N^2—((S)-1-(1H-indol-5-yl)ethyl)-N^4-(5-(tetrahydrofuran-3-yl)-1H-pyrazol-3-yl)pyrimidine-2,4-diamine]
